This is an account of results in patent publication US10751338B2, “Sustained-release voriconazole-containing thermogel and uses thereof” (priority 2017, dated 2020).

Broadly, the MIC is the least concentration at which growth counts as inhibited.

Data set [1] can be described thus: In vitro release of voriconazole from the thermogel (Example 5). It is filed as physicochemical. As to the method: Each formulation was tested in triplicate.
The injection volume was 100 μl.

Data set [2] in a line: Ex-vivo trans-corneal fluorescein permeation, Franz diffusion cell (Example 4). It is filed as in vitro ADME, horse. The note with it: 10 μM sodium fluorescein, 6 hours, 37° C. As to the method: Fresh equine corneas used in the experiment were obtained from horses enrolled in terminal laboratories performed at the AULATH. Corneoscleral buttons (16 mm diameter) were dissected using standard eye bank technique within 2 hours of enucleation. Fluorescent permeation experiments using a Franz diffusion cell method were performed to examine the integrity of the epithelial barrier function during the times studied (2 and 6 hours). Corneas were mounted horizontally between the donor and the receiving compartments of the diffusion cells (exposure window 0.64 cm^2), which were maintained at 37° C. (see FIGS. 8A and 8B).
Samples (1 ml PBS pH 7.4) were removed from the receiving compartment hourly and replaced with fresh receiving fluid. The fluorescent intensities of the receiving solution samples were analyzed using a microplate spectrofluorometer (Fluostar, BMG Labtech, Ortenberg, Germany) and a 96 well plate (Costar, Corning, N.Y.). A standard solution of NaF was prepared in PBS with a concentration range of 30 μg/ml to 0.12 μg/ml. Fluorescence was determined in a spectrofluorometer at excitation and emission wavelengths of 490 nm and 512 nm, respectively. All groups were tested in triplicate. The results were expressed as mean value±standard error of the mean (SEM).

The subject of data set [3] is common equine fungal pathogens. To be noted: target MIC; cited from earlier work.

Values after ≈ are worked out from the molar mass of the structure shown. Where only a bound is given, the exact number is not on record here.

Regarding `C[C@@H](c1ncncc1F)[C@](O)(Cn1cncn1)c1ccc(F)cc1F` [Group 6, voriconazole], the “Day by which voriconazole was undetectable” value in data set [1] (PBS samples) was at most 6 days. In data set [1] (mean, PBS, 34.5° C.), this molecule returned a UC24 of 4133 µg·days/mL and a UC28 of 4135 µg·days/mL. In data set [1] (mean, first-order release), this molecule registered a K release of 0.7558 day⁻¹.
For `O=C1OC2(c3ccc(O)cc3Oc3cc(O)ccc32)c2ccccc21` [fluorescein, sodium fluorescein], the “Fluorescein concentration in receiving compartment versus negative control” value in data set [2] is reported as “not significantly different”.
On to `C[C@@H](c1ncncc1F)[C@](O)(Cn1cncn1)c1ccc(F)cc1F` [voriconazole], for which, in data set [3], the minimal inhibitory concentration (MIC) is 0.5 µg/mL (≈ 1.43 µM).
